From patent US8513423B2 (Janssen Pharmaceutica, NV, priority 2010, dated 2013)
Changes are numbered by the printed parent chain. Like-named read-outs stand apart in the source and are kept apart here.

Experiments:
MGL = target: T1, MGL (Rattus norvegicus, UniProt Q8R431); experiment: 2-AG accumulation assay in rat brain homogenate; format: biochemical; settings: compound @1 μM, read-out: Rat Brain 2AG % VehCntrl (%) @1 μM
T1 construct: one g rat brain was homogenized; from tissue; host or cells: rat brain homogenate
T1 sequence (Q8R431 1-303): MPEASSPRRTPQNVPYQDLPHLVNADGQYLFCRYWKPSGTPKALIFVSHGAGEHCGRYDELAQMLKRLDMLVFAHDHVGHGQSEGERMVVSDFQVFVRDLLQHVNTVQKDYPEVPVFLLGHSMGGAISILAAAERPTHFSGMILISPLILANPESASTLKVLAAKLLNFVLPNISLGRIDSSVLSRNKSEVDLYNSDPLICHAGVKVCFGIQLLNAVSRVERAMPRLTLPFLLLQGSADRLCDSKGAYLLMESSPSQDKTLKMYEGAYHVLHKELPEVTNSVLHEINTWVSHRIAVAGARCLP
Description: After a 15-min incubation time at 37° C., CaCl2 (final concentration=10 mM) was added and then incubated for 15 min at 37° C. in a total volume of 5 mL. The reactions were stopped with 6 mL organic solvent extraction solution of 2:1 chloroform/methanol. Accumulated 2-AG in the organic phase was measured by a HPLC/MS method, according to the following equation: percent vehicle=(2-AG accumulation in the presence of compound/2-AG accumulation in vehicle)×100.

mutant MGL = target: T2, mutant MGL (Homo sapiens, UniProt Q99685, L169S/L176S); experiment: MGL ThermoFluor assay - mutant; format: binding
T2 construct: purified mutant MGL (mut-MGLL 11-313 L179S L186S)
T2 sequence (Q99685 1-303 L169S/L176S): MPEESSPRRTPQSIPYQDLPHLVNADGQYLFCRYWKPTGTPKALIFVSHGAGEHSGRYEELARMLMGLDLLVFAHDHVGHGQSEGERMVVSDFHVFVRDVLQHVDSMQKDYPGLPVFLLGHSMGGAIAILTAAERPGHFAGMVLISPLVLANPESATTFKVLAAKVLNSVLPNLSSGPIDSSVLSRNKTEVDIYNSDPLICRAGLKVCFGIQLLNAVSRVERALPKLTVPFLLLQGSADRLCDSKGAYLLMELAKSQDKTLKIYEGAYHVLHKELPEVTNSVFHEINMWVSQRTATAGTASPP
Procedure, shortened: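 Thermal shift binding with 0.07 mg/ml L169S/L176S MGL, 100 μM 1,8-ANS, 200 mM NaCl, 0.001% Tween-20, 50 mM PIPES pH 7.0. Heated 40–90 °C at 1 °C/min, fluorescence (em 500 nm) tracked to give Tm; Kd fitted from 11-point concentration–Tm response, qKd when stocks quantified by qNMR.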

[1] = target: T3, purified wild type MGL (wt-MGLL 6H-11-313) (Homo sapiens, UniProt Q99685); experiment: MGL enzyme activity assay (4MU-B cleavage), wild type MGL; format: biochemical; settings: 10 μM 4MU-B, 5 nM enzyme, 37° C., read-out: MGL wild type inh IC50
T3 construct: purified wild type MGL (wt-MGLL 6H-11-313)
T3 sequence (Q99685 1-303): T2 sequence (Q99685 1-303 L169S/L176S) with S169L, S176L
Procedure, shortened: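 Enzyme (5 nM final) cleaved 4MU-B (10 μM final) in 20 mM PIPES pH 7.0 with 150 mM NaCl and 0.001% Tween 20. Compounds were tested at 17 to 0.0003 μM final. Fluorescence (ex 335/em 440 nm) was monitored at 37° C for 5 min, and IC50 was fitted from fractional activity versus inhibitor concentration.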

[2] = 0.07 mg/ml mutant MGL, pH=7.0, read-out: MGL mutant ThermoFluor Kd
[3] = compound concentration measured by qNMR, read-out: MGL mutant ThermoFluor qKd (using qNMR conc.)

Row | SMILES | 2-AG accumulation, percent of vehicle control at 1 µM (MGL) [%] | Kd (mutant MGL; [2]) [nM] | IC50 [1] [nM] | Kd (mutant MGL; [3]) [nM]
1 | O=C(c1ccc(Cc2ccc(C(F)(F)F)cc2)cc1)N1CC(C2CCN(C(=O)c3nccs3)CC2)C1 [Cpd 27, 1-(1,3-Thiazol-2-ylcarbonyl)-4-[1-({4-[4-(trifluoromethyl)benzyl]phenyl}carbonyl)azetidin-3-yl]piperidine] | 634 | 13.3 | 9 | 
2 | O=C(c1ccc2nc(-c3ccccc3)oc2c1)N1CC(C2CCN(C(=O)c3nccs3)CC2)C1 [Cpd 28, 2-Phenyl-6-({3-[1-(1,3-thiazol-2-ylcarbonyl)piperidin-4-yl]azetidin-1-yl}carbonyl)-1,3-benzoxazole] | 777 | 11.1 | 16.4 | 
3 | O=C(c1ccc2c(ccn2-c2ccc(F)cc2)c1)N1CC(C2CCN(C(=O)c3nccs3)CC2)C1 [Cpd 30, 1-(4-Fluorophenyl)-5-({3-[1-(1,3-thiazol-2-ylcarbonyl)piperidin-4-yl]azetidin-1-yl}carbonyl)-1H-indole] | 443 | 2.5 | < 5 | 
4 | O=C(c1ccc2c(ccn2-c2ccc(C(F)(F)F)cc2)c1)N1CC(C2CCN(C(=O)c3nccs3)CC2)C1 [Cpd 31, 5-({3-[1-(1,3-Thiazol-2-ylcarbonyl)piperidin-4-yl]azetidin-1-yl}carbonyl)-1-[4-(trifluoromethyl)phenyl]-1H-indole] | 779 | 2.6 | < 5 | 
5 | O=C(c1ccc(Cc2ccc(C(F)(F)F)cc2)cc1)N1CC(C2CCN(C(=O)c3cscn3)CC2)C1 [Cpd 33, 1-(1,3-Thiazol-4-ylcarbonyl)-4-[1-({4-[4-(trifluoromethyl)benzyl]phenyl}carbonyl)azetidin-3-yl]piperidine] | 696 | 62.6 | < 5 | 
6 | O=C(c1ccc2nc(-c3ccccc3)oc2c1)N1CC(C2CCN(C(=O)c3cscn3)CC2)C1 [Cpd 34, 2-Phenyl-6-({3-[1-(1,3-thiazol-4-ylcarbonyl)piperidin-4-yl]azetidin-l-yl}carbonyl)-1,3-benzoxazole] | 517 | 198 | 54.4 | 
7 | O=C(c1cscn1)N1CCC(C2CN(C(=O)c3sc4cc(C(F)(F)F)ccc4c3Cl)C2)CC1 [Cpd 35, 4-(1-{[3-Chloro-6-(trifluoromethyl)-1-benzothiophen-2-yl]carbonyl}azetidin-3-yl)-1-(1,3-thiazol-4-ylcarbonyl)piperidine] | 724 | 2.5 | < 5 | 5.7
8 | O=C(c1ccc2c(ccn2-c2ccc(F)cc2)c1)N1CC(C2CCN(C(=O)c3cscn3)CC2)C1 [Cpd 36, 1-(4-Fluorophenyl)-5-({3-[1-(1,3-thiazol-4-ylcarbonyl)piperidin-4-yl]azetidin-1-yl}carbonyl)-1H-indole] | 507 | 22.5 | < 5 | 
9 | O=C(c1ccc2c(ccn2-c2ccc(C(F)(F)F)cc2)c1)N1CC(C2CCN(C(=O)c3cscn3)CC2)C1 [Cpd 37, 5-({3-[1(1,3 -Thiazol-4-ylcarbonyl)piperidin-4-yl]azetidin-1-yl}carbonyl)-1-[4-(trifluoromethyl)phenyl]-1H-indole] | 163 | 16 | < 5 | 
10 | O=C(c1ccc2c(ccn2-c2ccc(F)c(F)c2)c1)N1CC(C2CCN(C(=O)c3cscn3)CC2)C1 [Cpd 38] | 425 | 15.5 | 5 | 
11 | O=C(c1ccc(Cc2ccc(C(F)(F)F)cc2)cc1)N1CC(C2CCN(C(=O)c3ccc[nH]3)CC2)C1 [Cpd 39, 1-(1H-Pyrrol-2-ylcarbonyl)-4-[1-({4-[4-(trifluoromethyl)benzyl]phenyl}carbonyl)azetidin-3-yl]piperidine] | 371 |  | < 5 | 48.9
12 | O=C(c1ccc2nc(-c3ccccc3)oc2c1)N1CC(C2CCN(C(=O)c3ccc[nH]3)CC2)C1 [Cpd 40, 2-Phenyl-6-({3-[1-(1H-pyrrol-2-ylcarbonyl)piperidin-4-yl]azetidin-1-yl}carbonyl)-1,3-benzoxazole] | 361 |  | 9 | 94.6
13 | O=C(c1ccc[nH]1)N1CCC(C2CN(C(=O)c3sc4cc(C(F)(F)F)ccc4c3Cl)C2)CC1 [Cpd 41, 4-(1-{[3-Chloro-6-(trifluoromethyl)-1-benzothiophen-2-yl]carbonyl}azetidin-3-yl)-1-(1H-pyrrol-2-ylcarbonyl)piperidine] | 272 | 4.1 | < 5 | 3.1
14 | O=C(c1ccc2c(ccn2-c2ccc(F)cc2)c1)N1CC(C2CCN(C(=O)c3ccc[nH]3)CC2)C1 [Cpd 42, 1-(4-Fluorophenyl)-5-({3-[1-(1H-pyrrol-2-ylcarbonyl)piperidin-4-yl]azetidin-1-yl}carbonyl)-1H-indole] | 498 |  | < 5 | 24.5
15 | O=C(c1ccc2c(ccn2-c2ccc(C(F)(F)F)cc2)c1)N1CC(C2CCN(C(=O)c3ccc[nH]3)CC2)C1 [Cpd 43, 5-({3-[1-(1H-Pyrrol-2-ylcarbonyl)piperidin-4-yl]azetidin-1-yl}carbonyl)-1-[4-(trifluoromethyl)phenyl]-1H-indole] | 611 |  | < 5 | 26.4
16 | O=C(c1ccc2c(ccn2-c2ccc(F)c(F)c2)c1)N1CC(C2CCN(C(=O)c3ccc[nH]3)CC2)C1 [Cpd 44] | 107 |  | < 5 | 21.3
17 | O=C(c1nccs1)N1CC(C2CCN(C(=O)c3ccc(-c4ccccc4)cc3F)CC2)C1 [Cpd 45] | 385 |  | < 5 | 12.2
18 | O=C(c1ccc[nH]1)N1CC(C2CCN(C(=O)c3ccc(-c4ccccc4)cc3F)CC2)C1 [Cpd 47, 1-[(3-Fluorobiphenyl-4-yl)carbonyl]-4-[1-(1H-pyrrol-2-ylcarbonyl)azetidin-3-yl]piperidine] | 153 | 76.7 | 37.9 | 33.3
19 | O=C(c1ccc(-c2cccc(C(F)(F)F)c2)cc1)N1CCC(C2CN(C(=O)c3cscn3)C2)CC1 [Cpd 49, 4-[1-(1,3-Thiazol-4-ylcarbonyl)azetidin-3-yl]-1-{[3′-(trifluoromethyl)biphenyl-4-yl]carbonyl}piperidine] | 908 |  | 6 | 1
20 | O=C(c1ccc(-c2cccc(C(F)(F)F)c2)cc1)N1CCC(C2CN(C(=O)c3ccc[nH]3)C2)CC1 [Cpd 50, 4-[1-(1H-Pyrrol-2-ylcarbonyl)azetidin-3-yl]-1-{[3′-(trifluoromethyl)biphenyl-4-yl]carbonyl}piperidine] | 561 |  | < 5 | 1
21 | O=C(c1cccc(-c2cccc(F)c2)c1)N1CCC(C2CN(C(=O)c3nccs3)C2)CC1 [Cpd 51, 1-[(3′-Fluorobiphenyl-3-yl)carbonyl]-4-[1-(1,3-thiazol-2-ylcarbonyl)azetidin-3-yl]piperidine] | 266 |  | < 5 | 18
